Drawing on patent US12521395B2, “Gem-disubstituted heterocyclic compounds and their use as IDH inhibitors” (NERVIANO MEDICAL SCIENCES S.R.L., priority 2019, dated 2026), this text covers IC50 for 19 compounds.

The target in one test is IDH1^R132C (Homo sapiens, UniProt O75874, R132C). The experiment in a line: NADPH depletion assay (diaphorase/resazurin), IDH1 R132C. The class given is biochemical. The protocol:
IDH mutated enzyme activity converting alpha-ketoglutarate to 2-hydroxyglutaric acid is measured using a NADPH depletion assay. In the assay the remaining cofactor is measured at the end of the reaction with the addition of a catalytic excess of diaphorase and resazurin, to generate a fluorescent signal in proportion to the amount of NADPH remaining. IDH1 WT enzyme as well as mutated isoforms IDH1^R132H, IDH1^R132C, and IDH2^R172K enzymes are commercially available proteins (see e.g. Sino Biological, Abcam, Active Motif or Creative BioMart).
IDH1^R132H homodimer enzyme are diluted to 8 nM, in 10 μL of Assay Buffer (150 mM NaCl, 50 mM Tris-HCl pH 7.6, 10 mM MgCl2, 0.001% Triton X-100, 4 mM β-mercaptoethanol); 0.2 μL of test compound, previously serially diluted 1 to 3, >10 experimental points from 1 mM in DMSO, is added and the mixture is incubated for 15 minutes at room temperature. The reaction is started with the addition of 10 μL of Substrate Mix (12 μM NADPH, 3.4 mM alpha-ketoglutarate in Assay Buffer) and the mixture is incubated for 60 minutes at room temperature. The reaction is terminated with the addition of 5 μl of Detection Buffer (100 μg/mL diaphorase, 30 μM resazurin, in IX Assay Buffer), and is incubated for 15 minutes before reading on a ViewLux as platereader at Ex544/Em590.
Compounds are assayed for their activity against IDH1^R132C following the same assay as above with the following modifications: IDH1^R132C and alpha-ketoglutarate final concentrations in the Assay Buffer is 2 nM and 0.14 mM, respectively.
(In general: Alamar Blue is a resazurin reagent that responds to reducing activity.)

Test [1] concerns cell lines HT-1080 (IDH1^R132C). Put plainly: Cellular assay: inhibition of 2HG production, LC-MS/MS. The class given is cell-based. The conditions noted are these: Homo sapiens, 72 hr incubation, 2-HG in cell culture media, read-out: HT1080 2-HG IC50. The method, then: Cell lines HT-1080 (commercially available) are maintained in E-MEM 10% FCS and incubated at 37° C. in a humidified 5% CO2 atmosphere.
Cells are seeded into 96 well black flat bottom plates at a density of 500 cells/well in 100 μL complete medium. After 24 hr the medium is replaced with 200 μL of fresh medium and compounds (dissolved into DMSO) are administrated to the cells using D300E Digital Dispenser (Tecan).
After 72 hr of incubation 100 μL from each well are collected and used for 2HG (R(−)-2-hydroxyglutarate) quantification. Levels of 2-HG in cell culture media are determined by LC-MS/MS. Cell supernatants (100 μL/well) are treated with 1 M aqueous trichloroacetic acid containing 130 μM of the internal standard 2-HG-d3 (20 μL/well) in a 96-well plate. The plates are sealed, mildly vortexed for 60 minutes, centrifuged at 4,000 RPM for 15 minutes, placed in a refrigerated autosampler taking care not to shake them, and aliquots of the upper part of the samples are directly injected in the chromatographic system. Calibration standards are obtained by ten folds dilution of aqueous 2-HG stock solutions with blank cell culture medium and denatured exactly in the same way as described above for samples. Samples and standards are assayed for 2-HG by reversed phase chromatography on a C18 column eluted with aqueous 0.15% formic acid and briefly washed with 90% methanol at the end of the run. 2-HG is determined by negative ion electrospray ionization with the internal standard method on a triple quadrupole mass spectrometer monitoring the MRM transitions 147>129 (2-HG) and 150>132 (2-HG-d3).
2-HG inhibition was calculated by comparing treated versus control data using Assay Explore (Symyx) software, with IC50 determined using a sigmoidal fitting algorithm.

The mark [2] stands for this setting: IDH1^R132C 2 nM, alpha-ketoglutarate 0.14 mM, read-out: IDH1^R132C IC50.

Like-named read-outs stand apart in the source and are kept apart here.

IDH1^R132C, sequence (O75874 whole entry R132C, canonical isoform): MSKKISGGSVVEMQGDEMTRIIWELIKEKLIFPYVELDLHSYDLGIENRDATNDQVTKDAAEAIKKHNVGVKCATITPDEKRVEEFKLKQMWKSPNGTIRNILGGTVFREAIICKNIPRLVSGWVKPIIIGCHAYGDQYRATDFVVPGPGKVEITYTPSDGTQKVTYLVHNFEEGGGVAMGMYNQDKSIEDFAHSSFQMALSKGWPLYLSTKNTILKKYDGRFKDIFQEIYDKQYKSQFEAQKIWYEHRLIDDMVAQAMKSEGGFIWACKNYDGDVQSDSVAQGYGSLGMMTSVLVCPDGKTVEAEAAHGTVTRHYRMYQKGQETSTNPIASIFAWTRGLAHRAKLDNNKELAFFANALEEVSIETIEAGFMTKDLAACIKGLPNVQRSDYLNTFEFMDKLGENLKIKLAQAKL

`C=CC(=O)N1CCN(C(C)(C)c2ccc([C@H](C)Nc3ncc4ccc(=O)n(C(C)C)c4n3)cc2)CC1` [cpd 2, 2-{[(1S)-1-{4-[2-(4-acryloylpiperazin-1-yl)propan-2-yl]phenyl}ethyl]amino}-8-(propan-2-yl)pyrido[2,3-d]pyrimidin-7(8H)-one]: the IC50 (commonly the concentration that inhibits the measured activity by half) on IDH1^R132C (setting [2]) was determined as 12 nM; in test [1], 4.9 nM.
In the same order, the values of `C=CC(=O)N1CCN(C2(c3ccc([C@H](C)Nc4ncc5ccc(=O)n(C(C)C)c5n4)cc3)COC2)CC1` [cpd 3, 2-{[(1S)-1-{4-[3-(4-acryloylpiperazin-1-yl)oxetan-3-yl]phenyl}ethyl]amino}-8-(propan-2-yl)pyrido[2,3-d]pyrimidin-7(8H)-one] are 27.2 nM and 13 nM.
In the same order, the values of `C=CC(=O)N1CCN(C2(c3ccc([C@H](C)Nc4ncc5ccc(=O)n(C(C)C)c5n4)cc3)CCN(C(C)=O)CC2)CC1` [cpd 6, 2-{[(1S)-1-{4-[1-acetyl-4-(4-acryloylpiperazin-1-yl)piperidin-4-yl]phenyl}ethyl]amino}-8-(propan-2-yl)pyrido[2,3-d]pyrimidin-7(8H)-one] are 5.9 nM and 5.2 nM.
The matching figures for `C=C(CN1CCN(C2(c3ccc([C@H](C)Nc4ncc5ccc(=O)n(C(C)C)c5n4)cc3)CCOCC2)CC1)C(=O)O` [cpd 7, 2-{[4-(4-{4-[(1S)-1-{[7-oxo-8-(propan-2-yl)-7,8-dihydropyrido[2,3-d]pyrimidin-2-yl]amino}ethyl]phenyl}tetrahydro-2H-pyran-4-yl)piperazin-1-yl]methyl}prop-2-enoic acid]: 40.2 nM and 562 nM.
With `CCC(=O)N1CCN(C2(c3ccc([C@H](C)Nc4ncc5ccc(=O)n(C(C)C)c5n4)cc3)CCOCC2)CC1` [cpd 8, 2-{[(1S)-1-{4-[4-(4-propanoylpiperazin-1-yl)tetrahydro-2H-pyran-4-yl]phenyl}ethyl]amino}-8-(propan-2-yl)pyrido[2,3-d]pyrimidin-7(8H)-one], the values for the IC50 (at IDH1^R132C (setting [2]); in test [1]) were 1320 nM and 1930 nM, respectively.
Consider `C=CC(=O)N1CCN(C2(c3ccc([C@@H](C)Nc4ncc5ccc(=O)n(C(C)C)c5n4)cc3)CCOCC2)CC1` [cpd 9, 2-{[(1R)-1-{4-[4-(4-acryloylpiperazin-1-yl)tetrahydro-2H-pyran-4-yl]phenyl}ethyl]amino}-8-(propan-2-yl)pyrido[2,3-d]pyrimidin-7(8H)-one], for which the IC50 at IDH1^R132C (setting [2]) was found to be 125 nM; in test [1] it was 67 nM.
In the same order, the values of `C=CC(=O)N1CCN(C2(c3ccc([C@H](C)Nc4ncc5ccc(=O)n(C(C)C)c5n4)cn3)CCOCC2)CC1` [cpd 12, 2-{[(1S)-1-{6-[4-(4-acryloylpiperazin-1-yl)tetrahydro-2H-pyran-4-yl]pyridin-3-yl}ethyl]amino}-8-(propan-2-yl)pyrido[2,3-d]pyrimidin-7(8H)-one] are 117 nM and 34 nM.
In the same order, the values of `C=CC(=O)N1CCN(C2(c3ccc([C@H](C)Nc4ncc5ccc(=O)n(CC)c5n4)cc3)CCOCC2)CC1` [cpd 14, 2-{[(1S)-1-{4-[4-(4-acryloylpiperazin-1-yl)tetrahydro-2H-pyran-4-yl]phenyl}ethyl]amino}-8-ethylpyrido[2,3-d]pyrimidin-7(8H)-one] are 4.4 nM and 4.8 nM.
In the same order, the values of `C=CC(=O)N1CCN(C2(c3ccc([C@H](C)Nc4ncc5c(C)cc(=O)n(C6CCCC6)c5n4)cc3)CCOCC2)CC1` [cpd 15, 2-{[(1S)-1-{4-[4-(4-acryloylpiperazin-1-yl)tetrahydro-2H-pyran-4-yl]phenyl}ethyl]amino}-8-cyclopentyl-5-methylpyrido[2,3-d]pyrimidin-7(8H)-one] are 24.7 nM and 9 nM.
Take `C=CC(=O)N1CCN(C2(c3ccc([C@H](C)Nc4ncc5ccc(=O)n(C(C)C)c5n4)cc3)CCCC2)CC1` [cpd 16, 2-{[(1S)-1-{4-[1-(4-acryloylpiperazin-1-yl)cyclopentyl]phenyl}ethyl]amino}-8-(propan-2-yl)pyrido[2,3-d]pyrimidin-7(8H)-one]: the results for the IC50 (at IDH1^R132C (setting [2]); in test [1]) were 1.3 nM and 0.3 nM, respectively.
The matching figures for `C=CC(=O)N1CCN(C2(c3ccc([C@H](C)Nc4ncc5ccc(=O)n(C(C)C)c5n4)cc3)CCOC2)CC1` (stereo partly drawn) [cpd 17, 2-{[(1S)-1-{4-[3-(4-acryloylpiperazin-1-yl)tetrahydrofuran-3-yl]phenyl}ethyl]amino}-8-(propan-2-yl)pyrido[2,3-d]pyrimidin-7(8H)-one]: 25.7 nM and 4.9 nM.
With `C=CC(=O)N1CCN(C2(c3ccc([C@H](C)Nc4nc(N)c5ccc(=O)n(C(C)C)c5n4)cc3)CCOCC2)CC1` [cpd 19, 2-{[(1S)-1-{4-[4-(4-acryloylpiperazin-1-yl)tetrahydro-2H-pyran-4-yl]phenyl}ethyl]amino}-4-amino-8-(propan-2-yl) pyrido[2,3-d]pyrimidin-7(8H)-one], the IC50 stood at 3.1 nM at IDH1^R132C (setting [2]) and 3 nM in test [1].
On to `C=CC(=O)N1CCN(C2(c3ccc([C@H](C)Nc4ncc5ccc(=O)n(C(C)C)c5n4)cc3)CCCCC2)CC1` [cpd 20, 2-{[(1S)-1-{4-[1-(4-acryloylpiperazin-1-yl)cyclohexyl]phenyl}ethyl]amino}-8-(propan-2-yl)pyrido[2,3-d]pyrimidin-7(8H)-one], for which the IC50 (against IDH1^R132C; in test [1]) was 1 nM in each case.
Regarding `CC(C)n1c(=O)ccc2cnc(N[C@@H](C)c3ccc(C4(N5CCN(C(=O)CCl)CC5)CCOCC4)cc3)nc21` [cpd 22, 2-{[(1S)-1-(4-{4-[4-(chloroacetyl)piperazin-1-yl]tetrahydro-2H-pyran-4-yl}phenyl)ethyl]amino}-8-(propan-2-yl) pyrido[2,3-d]pyrimidin-7(8H)-one], the IC50 was found to be 8 nM on IDH1^R132C (setting [2]) and 121 nM in test [1].
`CC(C)n1c(=O)ccc2cnc(N[C@@H](C)c3ccc(C4(N5CCN(C(=O)CCCl)CC5)CCOCC4)cc3)nc21` [cpd 23, 2-{[(1S)-1-(4-{4-[4-(3-chloropropanoyl)piperazin-1-yl]tetrahydro-2H-pyran-4-yl}phenyl)ethyl]amino}-8-(propan-2-yl) pyrido[2,3-d]pyrimidin-7(8H)-one]: the IC50 stood at 1460 nM at IDH1^R132C (setting [2]) and 122 nM in test [1].
In the same order, the values of `C=CC(=O)N1CCN(C2(c3ccc([C@H](C)Nc4ncc5c(n4)N(CC)C(=O)OC5)cc3)CCOCC2)CC1` [cpd 24, 7-{[(1S)-1-{4-[4-(4-acryloylpiperazin-1-yl)tetrahydro-2H-pyran-4-yl]phenyl}ethyl]amino}-1-ethyl-1,4-dihydro-2H-pyrimido[4,5-d][1,3]oxazin-2-one] are 3 nM and 2.1 nM.
Take `C=CC(=O)N1CC(N(C)C2(c3ccc([C@H](C)Nc4ncc5ccc(=O)n(C(C)C)c5n4)cc3)CCOCC2)C1` [cpd 28, 2-{[(1S)-1-(4-{4-[(1-acryloylazetidin-3-yl)(methyl)amino]tetrahydro-2H-pyran-4-yl}phenyl)ethyl]amino}-8-(propan-2-yl) pyrido[2,3-d]pyrimidin-7(8H)-one]: the IC50 at IDH1^R132C (setting [2]) amounted to 26 nM; in test [1], 47 nM.
For the compound `C=CC(=O)NCCN(C(=O)C(F)(F)F)C1(c2ccc([C@H](C)Nc3ncc4ccc(=O)n(C(C)C)c4n3)cc2)CCOCC1` [cpd 66, N-{2-[(4-{4-[(1S)-1-{[7-oxo-8-(propan-2-yl)-7,8-dihydropyrido[2,3-d]pyrimidin-2-yl]amino}ethyl]phenyl}tetrahydro-2H-pyran-4-yl)(trifluoroacetyl)amino]ethyl}prop-2-enamide], the IC50 at IDH1^R132C (setting [2]) was determined as 75 nM.
The same measure, in the same setting: the result for `CCC(=O)N1CCN(C2(c3ccc([C@H](C)Nc4cc5c(ccc(=O)n5C(C)C)cn4)cc3)CCC(F)(F)CC2)CC1` [cpd 67, 7-{[(1S)-1-{4-[4,4-difluoro-1-(4-propanoylpiperazin-1-yl)cyclohexyl]phenyl}ethyl]amino}-1-(propan-2-yl)-1,6-naphthyridin-2(1H)-one] reads 32 nM.
